“And” between values parts separate entries of the source, which are not always exact repeats. Equal values may be shown once.
System: 743489-274-T-PDC complex spheroid growth
Experiment: Anticancer human tumor 743489-274-T-PDC patient-derived renal cell carcinoma cell line growth inhibition [AhR]
Settings: for viability, T/C: stronger effect = lower value
Method in brief: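 Spheroids combined tumor cells with HUVEC endothelial cells and human MSCs as stroma. AhR antagonists were paired with standard or investigational drugs, each dosed in half-log steps down from near clinical Cmax, or from 10 microM where Cmax was unknown.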

[1] = curve of first compound, second compound 0.1 µM
[2] = curve of first compound, second compound 0.316 µM
[3] = curve of first compound, second compound 1 µM
[4] = curve of first compound, second compound 3.16 µM
[5] = curve of first compound, second compound 10 µM
[6] = second compound 0.1 µM, first compound 0.00316 µM
[7] = second compound 0.1 µM, first compound 0.01 µM
[8] = second compound 0.1 µM, first compound 0.0316 µM
[9] = second compound 0.1 µM, first compound 0.1 µM
[10] = second compound 0.316 µM, first compound 0.00316 µM
[11] = second compound 0.316 µM, first compound 0.01 µM
[12] = second compound 0.316 µM, first compound 0.0316 µM
[13] = second compound 0.316 µM, first compound 0.1 µM
[14] = second compound 1 µM, first compound 0.00316 µM
[15] = second compound 1 µM, first compound 0.01 µM
[16] = second compound 1 µM, first compound 0.0316 µM
[17] = second compound 1 µM, first compound 0.1 µM
[18] = second compound 3.16 µM, first compound 0.00316 µM
[19] = second compound 3.16 µM, first compound 0.01 µM
[20] = second compound 3.16 µM, first compound 0.0316 µM
[21] = second compound 3.16 µM, first compound 0.1 µM
[22] = second compound 10 µM, first compound 0.00316 µM
[23] = second compound 10 µM, first compound 0.01 µM
[24] = second compound 10 µM, first compound 0.0316 µM
[25] = second compound 10 µM, first compound 0.1 µM
[26] = second compound 0.1 µM, first compound 0.316 µM
[27] = second compound 0.1 µM, first compound 1 µM
[28] = second compound 0.1 µM, first compound 3.16 µM
[29] = second compound 0.1 µM, first compound 10 µM
[30] = second compound 0.316 µM, first compound 0.316 µM
[31] = second compound 0.316 µM, first compound 1 µM
[32] = second compound 0.316 µM, first compound 3.16 µM
[33] = second compound 0.316 µM, first compound 10 µM
[34] = second compound 1 µM, first compound 0.316 µM
[35] = second compound 1 µM, first compound 1 µM
[36] = second compound 1 µM, first compound 3.16 µM
[37] = second compound 1 µM, first compound 10 µM
[38] = second compound 3.16 µM, first compound 0.316 µM
[39] = second compound 3.16 µM, first compound 1 µM
[40] = second compound 3.16 µM, first compound 3.16 µM
[41] = second compound 3.16 µM, first compound 10 µM
[42] = second compound 10 µM, first compound 0.316 µM
[43] = second compound 10 µM, first compound 1 µM
[44] = second compound 10 µM, first compound 3.16 µM
[45] = second compound 10 µM, first compound 10 µM
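Note: spheroids exposed to agents for 7 days before readout.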
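Throughout, for viability, T/C: 100% = DMSO vehicle control wells.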

Compound | IC50 [1] | IC50 [2] | IC50 [3] | IC50 [4] | IC50 [5] | viability, T/C [8] | viability, T/C [9] | viability, T/C [12] | viability, T/C [13] | viability, T/C [16] | viability, T/C [17] | viability, T/C [20] | viability, T/C [21] | viability, T/C [24] | viability, T/C [25] | viability, T/C [26] | viability, T/C [27] | viability, T/C [30] | viability, T/C [31] | viability, T/C [34] | further results
CC[C@@]1(O)C(=O)OCc2c1cc1n(c2=O)Cc2cc3c(CN(C)C)c(O)ccc3nc2-1 + CC(CO)NC(=O)c1cc(-c2ccc(Cl)cc2)nn(-c2cnn(C)c2)c1=O | > 0.1 µM | > 0.1 µM | > 0.1 µM | > 0.1 µM | > 0.1 µM | 86.6% | 86.4% | 83.3% | 82.3% | 86.2% | 79% | 92.5% | 88.3% | 85.9% | 81.4% | – | – | – | – | – | viability, T/C (second compound 0.1 µM, first compound 0.000316 µM): 99.8%; viability, T/C (second compound 0.1 µM, first compound 0.001 µM): 97.9%; viability, T/C [6]: 91.4%; viability, T/C [7]: 94.4%; viability, T/C (second compound 0.316 µM, first compound 0.000316 µM): 90.7%; viability, T/C (second compound 0.316 µM, first compound 0.001 µM): 96.5%; viability, T/C [10]: 102%; viability, T/C [11]: 84.7%; viability, T/C (second compound 1 µM, first compound 0.000316 µM): 96.2%; viability, T/C (second compound 1 µM, first compound 0.001 µM): 98.9%; viability, T/C [14]: 95.4%; viability, T/C [15]: 87%; viability, T/C (second compound 3.16 µM, first compound 0.000316 µM): 91.2%; viability, T/C (second compound 3.16 µM, first compound 0.001 µM): 89.9%; viability, T/C [18]: 92.4%; viability, T/C [19]: 84%; viability, T/C (second compound 10 µM, first compound 0.000316 µM): 92.4%; viability, T/C (second compound 10 µM, first compound 0.001 µM): 92.7%; viability, T/C [22]: 109%; viability, T/C [23]: 92.4%
COc1ccc([C@@H](O)c2cc(-c3ncnc4cc(N5CCOCC5)ccc34)c(F)cc2Cl)nn1 + Cc1ccccc1N=Nc1ccc(NC(=O)c2ccnn2C)c(C)c1 | 2.61 µM | 2.57 µM | 2.34 µM | 2.26 µM | 1.72 µM | 99.7% | 87.6% | 96.2% | 89.1% | 101% | 87% | 84.5% | 81.5% | 86.2% | 90.2% | 95.7% | 80.1% | 92.4% | 77.2% | 86.5% | viability, T/C [28]: 44.1%; viability, T/C [29]: 31.9%; viability, T/C [32]: 44.1%; viability, T/C [33]: 22.4%; viability, T/C [35]: 68.9%; viability, T/C [36]: 42.2%; viability, T/C [37]: 22.8%; viability, T/C [38]: 87.5%; viability, T/C [39]: 77.7%; viability, T/C [40]: 38.4%; viability, T/C [41]: 19.1%; viability, T/C [42]: 81.5%; viability, T/C [43]: 62.2%; viability, T/C [44]: 36.1%; viability, T/C [45]: 18.8%
CC(C)c1c(-c2ccccc2)nc2c(C#N)c[nH]n2c1=O + Cc1ccccc1N=Nc1ccc(NC(=O)c2ccnn2C)c(C)c1 | > 10 µM | > 10 µM | > 10 µM | > 10 µM | > 10 µM | 102% | 103% | 102% | 102% | 111% | 93.8% | 94.3% | 98.1% | 92.2% | 99.2% | 93.3% | 96% | 101% | 94.1% | 108% | viability, T/C [28]: 109%; viability, T/C [29]: 99.4%; viability, T/C [32]: 100%; viability, T/C [33]: 91.3%; viability, T/C [35]: 109%; viability, T/C [36]: 95.7%; viability, T/C [37]: 96.2%; viability, T/C [38]: 94.5%; viability, T/C [39]: 103%; viability, T/C [40]: 104%; viability, T/C [41]: 90.4%; viability, T/C [42]: 104%; viability, T/C [43]: 93.2%; viability, T/C [44]: 85.8%; viability, T/C [45]: 86.9%
COc1cccc2c1C(=O)c1c(O)c3c(c(O)c1C2=O)CC(O)(C(=O)CO)CC3OC1CC(N)C(O)C(C)O1 (configuration not stated) + CC(CO)NC(=O)c1cc(-c2ccc(Cl)cc2)nn(-c2cnn(C)c2)c1=O | 8.45 µM | 9.32 µM | 8.98 µM | 6.53 µM | 3.24 µM | 101% | 106% | 93.7% | 106% | 110% | 95% | 88% | 91.6% | 92% | 103% | 107% | 96.3% | 108% | 93.5% | 107% | viability, T/C [28]: 108%; viability, T/C [29]: 40.6%; viability, T/C [32]: 102%; viability, T/C [33]: 46.7%; viability, T/C [35]: 97%; viability, T/C [36]: 93.2%; viability, T/C [37]: 45.5%; viability, T/C [38]: 108%; viability, T/C [39]: 96.7%; viability, T/C [40]: 88.2%; viability, T/C [41]: 27.4%; viability, T/C [42]: 101%; viability, T/C [43]: 89.7%; viability, T/C [44]: 51.2%; viability, T/C [45]: 0.36%
NS(=O)(=O)OCC1CC(n2ccc3c(NC4CCc5ccccc54)ncnc32)CC1O (configuration not stated) + Cc1cncc(-c2nc(NCCc3c[nH]c4ccccc34)c3ncn(C(C)C)c3n2)c1 | > 10 µM | > 10 µM | > 10 µM | > 10 µM | > 10 µM | 105% | 98.2% | 93.2% | 92.7% | 96.8% | 98.7% | 119% | 114% | 114% | 127% | 99.8% | 112% | 110% | 125% | 116% | viability, T/C [28]: 128%; viability, T/C [29]: 154%; viability, T/C [32]: 136%; viability, T/C [33]: 139%; viability, T/C [35]: 133%; viability, T/C [36]: 149%; viability, T/C [37]: 134%; viability, T/C [38]: 119%; viability, T/C [39]: 136%; viability, T/C [40]: 152%; viability, T/C [41]: 139%; viability, T/C [42]: 106%; viability, T/C [43]: 103%; viability, T/C [44]: 118%; viability, T/C [45]: 123%
CC1COCCN1c1cc(C2(S(C)(=N)=O)CC2)nc(-c2ccnc3[nH]ccc23)n1 (configuration not stated) | – | – | – | – | – | – | – | – | – | – | – | – | – | – | – | – | – | – | – | – | viability, T/C (compound 0.0316 µM): 101% (2×) and 98.1%; viability, T/C (compound 0.1 µM): 109% and 103% and 97.3%; viability, T/C (compound 0.316 µM): 101% and 110% and 96.7%; viability, T/C (compound 1 µM): 94.8% and 103% and 108%; viability, T/C (compound 3.16 µM): 98.2% and 102% and 104%; viability, T/C (compound 10 µM): 99.1% and 92% and 114%; IC50 (curve of compound): > 10 µM
CC1COCCN1c1cc(-c2ccnn2C)c2ccnc(-c3ccn[nH]3)c2n1 (configuration not stated) + CC(CO)NC(=O)c1cc(-c2ccc(Cl)cc2)nn(-c2cnn(C)c2)c1=O | > 1 µM | > 1 µM | > 1 µM | > 1 µM | > 1 µM | 99.9% | 91.4% | 93.9% | 97.2% | 93.4% | 96.2% | 105% | 92.2% | 92.1% | 93.2% | 99.2% | 88.8% | 93.4% | 71.5% | 88.9% | viability, T/C [6]: 105%; viability, T/C [7]: 97.6%; viability, T/C [10]: 92%; viability, T/C [11]: 97.7%; viability, T/C [14]: 87.6%; viability, T/C [15]: 90%; viability, T/C [35]: 81.8%; viability, T/C [18]: 112%; viability, T/C [19]: 91.7%; viability, T/C [38]: 88.5%; viability, T/C [39]: 65.6%; viability, T/C [22]: 112%; viability, T/C [23]: 91.8%; viability, T/C [42]: 95.9%; viability, T/C [43]: 76.8%

From PubChem BioAssay AID1919002 (Molecular Pharmacology Branch, DTP, NCI, 2023)
